Experimental data reported in PubChem BioAssay AID1845210 (Molecular Pharmacology Branch, DTP, NCI, 2023).
Several values for one entry are separate records, joined by “and”; a condition that tells them apart may be missing. Equal entries are not always repeated. Values belong to the compound of their own block, whether it stands above or below them.

System: NCI-H226 complex tumor spheroids, viability
Test: Anticancer human tumor NCI-H226 cell line growth inhibition;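 further: spheroids exposed to compound for 7 days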;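 on viability, T/C: 100% = DMSO vehicle control viability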
Conditions: for viability, T/C: stronger effect = lower value
Description: Multicellular complex tumor spheroid response to DNA repair inhibitors in combination with DNA-damaging drugs
This study explores the anticancer activities of DNA-damaging drugs and inhibitors of DNA damage repair, both as single agents and in combinations. Complex tumor spheroids comprised of malignant cells, endothelial cells and mesenchymal stem cells served as an in vitro model for human solid tumors. This model system incorporates physiologically relevant features and patient-derived or established malignant cell lines with clinically relevant genetic alterations from many tumor types. Twenty-six patient-derived or established malignant cell lines were evaluated representing sarcoma, melanoma, small cell lung cancer (SCLC), non-small cell lung cancer (NSCLC), as well as bladder, ovarian and pancreatic cancers. The concentration ranges selected for each drug and investigational agent were based upon clinically achievable concentrations if the clinical Cmax of the agent was known.
Compounds. The drugs and compounds olaparib (NSC753686), talazoparib (NSC767125), berzosertib (NSC777718), elimusertib (NSC800525), nedisertib (NSC802822), VX-984 (NSC792969), AZD-1390 (NSC803789), temozolomide (NSC362856), topotecan (NSC609699), trabectedin (NSC813783), staurosporine (NSC755774), and gemcitabine (NSC613327) were obtained from the National Cancer Institute (NCI) Developmental Therapeutics Program Chemical Repository. The FDA-approved anticancer drug set is available from the Developmental Therapeutics Program at https://dtp.cancer.gov/organization/dscb/obtaining/available_plates.htm. […] The stock solutions were prepared in dimethyl sulfoxide (DMSO, Sigma-Aldrich, St. Louis, MO, cat. D2650) at 400-fold the tested concentration and stored at -70 degrees C. Prior to their use, the stock solutions were diluted in fresh medium and the final DMSO concentration in the assay was 0.25% (v/v). All drugs and investigational agents were tested over a range starting from a high concentration at or near the clinical Cmax and decreasing in half-log increments. If the clinical Cmax for an agent had not been determined, the highest concentration tested was 10 microM.
Cell Lines. The patient-derived cancer cell (PDC) lines: 156681-154-R-J1-PDC, 283228-195-R-J1-PDC, 287954-098-R-J1-PDC, 292921-168-R-J2-PDC, 349418-098-R-PDC, 425362-245-T-J1-PDC, 556581-035-R-J1-PDC, and BL0293-F563-PDC were received from the NCI Patient-Derived Models Repository (PDMR, https://pdmr.cancer.gov). The established cell lines HS-SY-2 (RRID:CVCL_8719), MPNST, and SYO-1 (RRID:CVCL_7146) were obtained from the Sloan Kettering Institute. The alveolar soft parts sarcoma cell line ASPS-1 (RRID:CVCL_S738) was established at the NCI and grown from internal seed stocks. The following established cell lines were purchased from the American Type Culture Collection (ATCC, Manassas, VA): G-401 (ATCC, cat. CRL-1441, RRID:CVCL_0270), SW982 (ATCC, cat. HTB-93, RRID:CVCL_1734), VA-ES-BJ (ATCC, cat. CRL-2138, RRID:CVCL_1785), NCI-H719 (ATCC, cat. CRL-5837, RRID:CVCL_1582), NCI-H196 (ATCC, cat. CRL-5823, RRID:CVCL_1509), NCI-H841 (ATCC, cat. CRL-5845, RRID:CVCL_1595), NCI-H1618 (ATCC, cat. CRL-5879, RRID:CVCL_1480), NCI-H1876 (ATCC, cat. CRL-5902, RRID:CVCL_1503), DMS 114 (ATCC, cat. CRL-2066; RRID:CVCL_1174), NCI-H211 (ATCC, cat. CRL-5824; RRID:CVCL_1529), and SW 1271 (ATCC, cat. CRL-2177, RRID:CVCL_1716). The small cell lung cancer cell line COR-L88 was purchased from Sigma-Aldrich (cat. 92031917-1VL, RRID:CVCL_1141). The non-small cell lung cancer cell lines NCI-H226 (RRID:CVCL_1544) and NCI-H322M (RRID:CVCL_1557) were established at the NCI and grown from internal seed stocks. Pooled donor human umbilical vein endothelial cells (HUVEC, Lonza, cat. CC-2519) and human mesenchymal stem cells (hMSC, Lonza, cat. PT-2501) were purchased from Lonza (Walkersville, MD).
Cell Culture. All cells were maintained in an incubator at 37 degrees C and 5% CO2 with 95% humidity. […]

[1] = compound alone, run of 12/02/2019

SMILES: CNCc1ccc(-c2cc(-c3nc(-c4ccc(S(=O)(=O)C(C)C)cc4)cnc3N)on2)cc1 + CC[C@@]1(O)C(=O)OCc2c1cc1n(c2=O)Cc2cc3c(CN(C)C)c(O)ccc3nc2-1
IC50 (curve of first compound, second compound 0.003 µM): 1710 nM
IC50 (curve of first compound, second compound 0.00949 µM): 1560 nM
IC50 (curve of first compound, second compound 0.03 µM): 1700 nM
IC50 (curve of first compound, second compound 0.0949 µM): 1670 nM
IC50 (curve of first compound, second compound 0.3 µM): 1310 nM
viability, T/C (second compound 0.003 µM, first compound 0.00949 µM): 111%
viability, T/C (second compound 0.003 µM, first compound 0.03 µM): 116%
viability, T/C (second compound 0.003 µM, first compound 0.0949 µM): 125%
viability, T/C (second compound 0.003 µM, first compound 0.3 µM): 130%
viability, T/C (second compound 0.003 µM, first compound 0.949 µM): 89.8%
viability, T/C (second compound 0.003 µM, first compound 3 µM): 12.1%
viability, T/C (second compound 0.00949 µM, first compound 0.00949 µM): 99.1%
viability, T/C (second compound 0.00949 µM, first compound 0.03 µM): 112%
viability, T/C (second compound 0.00949 µM, first compound 0.0949 µM): 108%
viability, T/C (second compound 0.00949 µM, first compound 0.3 µM): 107%
viability, T/C (second compound 0.00949 µM, first compound 0.949 µM): 87%
viability, T/C (second compound 0.00949 µM, first compound 3 µM): 1.35%
viability, T/C (second compound 0.03 µM, first compound 0.00949 µM): 90.5%
viability, T/C (second compound 0.03 µM, first compound 0.03 µM): 109%
viability, T/C (second compound 0.03 µM, first compound 0.0949 µM): 115%
viability, T/C (second compound 0.03 µM, first compound 0.3 µM): 123%
viability, T/C (second compound 0.03 µM, first compound 0.949 µM): 97.4%
viability, T/C (second compound 0.03 µM, first compound 3 µM): 3.86%
viability, T/C (second compound 0.0949 µM, first compound 0.00949 µM): 90.7%
viability, T/C (second compound 0.0949 µM, first compound 0.03 µM): 105%
viability, T/C (second compound 0.0949 µM, first compound 0.0949 µM): 104%
viability, T/C (second compound 0.0949 µM, first compound 0.3 µM): 110%
viability, T/C (second compound 0.0949 µM, first compound 0.949 µM): 96.7%
viability, T/C (second compound 0.0949 µM, first compound 3 µM): 1.91%
viability, T/C (second compound 0.3 µM, first compound 0.00949 µM): 70.1%
viability, T/C (second compound 0.3 µM, first compound 0.03 µM): 76.7%
viability, T/C (second compound 0.3 µM, first compound 0.0949 µM): 92.8%
viability, T/C (second compound 0.3 µM, first compound 0.3 µM): 101%
viability, T/C (second compound 0.3 µM, first compound 0.949 µM): 69.5%
viability, T/C (second compound 0.3 µM, first compound 3 µM): 0.93%

SMILES: Cc1cc(C)c(CNC(=O)c2cc(-c3ccc(CN4CCOCC4)cc3)cc3c2cnn3C2CCCC2)c(=O)[nH]1
viability, T/C (compound 0.0316 µM): 100% (2×) and 94.5%
viability, T/C (compound 0.1 µM): 102% and 112% and 103%
viability, T/C (compound 0.316 µM): 99% and 107% and 112%
viability, T/C (compound 1 µM): 83.4% and 110% and 97.2%
viability, T/C (compound 3.16 µM): 91% and 115% and 98.1%
viability, T/C (compound 10 µM): 91.5% and 118% and 100%
IC50 (curve of compound): > 10000 nM

IC50 [1]: > 300 nM
IC50 (compound alone, run of 12/12/2019): > 300 nM
SMILES: CC[C@@]1(O)C(=O)OCc2c1cc1n(c2=O)Cc2cc3c(CN(C)C)c(O)ccc3nc2-1
viability, T/C (compound 0.003 µM): 94.5% [middle of 10 runs]
viability, T/C (compound 0.03 µM): 86% [middle of 10 runs]
viability, T/C (compound 0.0949 µM): 86.1% [middle of 10 runs]
viability, T/C (compound 0.3 µM): 66.8% [middle of 10 runs]

SMILES: Cc1sc2c(c1C)C(c1ccc(Cl)cc1)=NC(CC(=O)Nc1ccc(O)cc1)c1nnc(C)n1-2 (stereo not given)
viability, T/C (compound 0.00949 µM): 80.2% and 99.2% and 85.2%
viability, T/C (compound 0.03 µM): 72.7% and 73.6% and 78.2%
viability, T/C (compound 0.0949 µM): 79.5% and 64.3% and 96.1%
viability, T/C (compound 0.3 µM): 57.7% and 57.8% and 77.4%
viability, T/C (compound 0.949 µM): 47.1% and 50.4% and 73.6%
viability, T/C (compound 3 µM): 38.5% and 49.4% and 63.2%
IC50 (curve of compound): 592 nM and > 3000 nM

SMILES: Cn1ncnc1[C@H]1c2n[nH]c(=O)c3cc(F)cc(c23)N[C@@H]1c1ccc(F)cc1 + Cn1nnc2c(C(N)=O)ncn2c1=O
IC50 (curve of first compound, second compound 1 µM): > 3000 nM
IC50 (curve of first compound, second compound 3.16 µM): > 3000 nM
IC50 (curve of first compound, second compound 10 µM): > 3000 nM
IC50 (curve of first compound, second compound 31.6 µM): > 3000 nM
IC50 (curve of first compound, second compound 100 µM): > 3000 nM
viability, T/C (second compound 1 µM, first compound 0.00949 µM): 101%
viability, T/C (second compound 1 µM, first compound 0.03 µM): 103%
viability, T/C (second compound 1 µM, first compound 0.0949 µM): 99.4%
viability, T/C (second compound 1 µM, first compound 0.3 µM): 91.2%
viability, T/C (second compound 1 µM, first compound 0.949 µM): 85.8%
viability, T/C (second compound 1 µM, first compound 3 µM): 97.8%
viability, T/C (second compound 3.16 µM, first compound 0.00949 µM): 105%
viability, T/C (second compound 3.16 µM, first compound 0.03 µM): 55.1%
viability, T/C (second compound 3.16 µM, first compound 0.0949 µM): 94.8%
viability, T/C (second compound 3.16 µM, first compound 0.3 µM): 85.6%
viability, T/C (second compound 3.16 µM, first compound 0.949 µM): 93.1%
viability, T/C (second compound 3.16 µM, first compound 3 µM): 105%
viability, T/C (second compound 10 µM, first compound 0.00949 µM): 108%
viability, T/C (second compound 10 µM, first compound 0.03 µM): 89.9%
viability, T/C (second compound 10 µM, first compound 0.0949 µM): 86.8%
viability, T/C (second compound 10 µM, first compound 0.3 µM): 88.6%
viability, T/C (second compound 10 µM, first compound 0.949 µM): 89.5%
viability, T/C (second compound 10 µM, first compound 3 µM): 97.5%
viability, T/C (second compound 31.6 µM, first compound 0.00949 µM): 101%
viability, T/C (second compound 31.6 µM, first compound 0.03 µM): 95.2%
viability, T/C (second compound 31.6 µM, first compound 0.0949 µM): 96.4%
viability, T/C (second compound 31.6 µM, first compound 0.3 µM): 91.8%
viability, T/C (second compound 31.6 µM, first compound 0.949 µM): 82.3%
viability, T/C (second compound 31.6 µM, first compound 3 µM): 90.7%
viability, T/C (second compound 100 µM, first compound 0.00949 µM): 106%
viability, T/C (second compound 100 µM, first compound 0.03 µM): 108%
viability, T/C (second compound 100 µM, first compound 0.0949 µM): 95.8%
viability, T/C (second compound 100 µM, first compound 0.3 µM): 87.1%
viability, T/C (second compound 100 µM, first compound 0.949 µM): 100%
viability, T/C (second compound 100 µM, first compound 3 µM): 93.5%

IC50 [1]: > 100000 nM
SMILES: Cn1nnc2c(C(N)=O)ncn2c1=O
viability, T/C (compound 3.16 µM): 112% [middle of 10 runs]
viability, T/C (compound 10 µM): 108% [middle of 10 runs]
viability, T/C (compound 31.6 µM): 110% [middle of 10 runs]
viability, T/C (compound 100 µM): 109% [middle of 10 runs]
